From patent US9884049B2, “Microbicidal composition comprising an octoxynol and a quinolizidine alkaloid compound or a source thereof” (NOVICOL INTERNATIONAL HOLDING INC., priority 2014, dated 2018)

Columns and labels:
TZM-b1 cells [1] = test: Cytotoxicity, XTT assay
TZM-b1 cells [2] = test: Cytotoxicity, CyQuant assay
HIV-1MN = test: Anti-HIV activity, MAGI assay in TZM-b1 cells; conditions: for EC50: HIV-1MN
HIV-1ADA-M = test: Anti-HIV activity, MAGI assay in TZM-b1 cells; conditions: for EC50: HIV-1ADA-M
HIV = conditions: nearly 1,000 sex workers in Africa, versus placebo; cited from earlier work
[3] = Wash (washed four hours after, then 72 h)

Compound | CC50 (TZM-b1 cells [1]; No wash) | CC50 (TZM-b1 cells [1]; Wash) | CC50 (TZM-b1 cells [2]; No wash (72 h)) | CC50 (TZM-b1 cells [2]; [3]) | TI (CC50/EC50) (HIV-1MN; CyQuant/HIV-1MN, No wash) | TI (CC50/EC50) (HIV-1MN; CyQuant/HIV-1MN, Wash) | EC50 (HIV-1MN; No wash) | EC50 (HIV-1MN; Wash) | TI (CC50/EC50) (HIV-1MN; XTT/HIV-1MN, No wash) | TI (CC50/EC50) (HIV-1MN; XTT/HIV-1MN, Wash) | TI (CC50/EC50) (HIV-1ADA-M; CyQuant/HIV-1ADA-M, No wash) | TI (CC50/EC50) (HIV-1ADA-M; CyQuant/HIV-1ADA-M, Wash) | EC50 (HIV-1ADA-M; No wash) | EC50 (HIV-1ADA-M; Wash) | TI (CC50/EC50) (HIV-1ADA-M; XTT/HIV-1ADA-M, No wash) | TI (CC50/EC50) (HIV-1ADA-M; XTT/HIV-1ADA-M, Wash) | HIV infection rate, higher than with placebo (HIV)
IGEPAL® CA-630 | 0.0002 % (w/v) | 0.0072 % (w/v) | 0.0036 % (w/v) | 0.0048 % (w/v) | 2.95 | 1.55 | 0.0012 % (w/v) | 0.0031 % (w/v) | 0.13 | 2.31 | 9.73 | 1.38 | 0.00037 % (w/v) | 0.0035 % (w/v) | 0.43 | 2.05 | –
nonoxynol-9 | – | – | – | – | – | – | – | – | – | – | – | – | – | – | – | – | about 50%
O=C1CCC[C@@H]2[C@H]3CCCN4CCC[C@@H](CN12)[C@@H]34 [Matrine, matrine] | 0.3122 % (w/v) | 1.1040 % (w/v) | 0.6240 % (w/v) | 0.3530 % (w/v) | 8.91 | 7.06 | 0.0700 % (w/v) | 0.0500 % (w/v) | 4.46 | 22.08 | 3.01 | 0.89 | 0.2075 % (w/v) | 0.3948 % (w/v) | 1.50 | 2.80 | –
